Results as given in article PMC11605291 (Frontiers in Pharmacology, 2024).
Like-named read-outs stand apart in the source and are kept apart here.

Columns and labels:
[1] = Excretion of radioactivity in urine and feces (mass balance); format: in vivo, human
Description: (§1) Six subjects were admitted to the clinical research center 1 day prior to dosing, with random urine and fecal samples collected as blank excretion controls. After fasting overnight for at least 10 h, a blank blood sample was collected after a regular breakfast (449 kcal, with ∼35% energy from fat) on Day 1. […] It is noteworthy that the medication administration duration for each subject was strictly kept within 10 min. Scheduled collection of urine, feces, and blood samples, and safety monitoring proceeded until completion.
The excreta sample collection ceased when total radioactivity from excreta surpassed 80% of the administered dose, or less than 1% of the dose for two consecutive intervals. Blood sample collection ceased when the radioactivity of plasma at 2 consecutive time points was lower than 3 times the radioactivity at 0 h before administration. Based on the interim results, sample collection concluded earlier than initially planned.
(§2) Venous blood samples were collected within 0.5 h prior to administration and at 0.5, 1, 1.5, 2, 3, 4, 6, 8, 12, 24, 36, 48, 72, and 96 h after administration. About 8 mL of blood was collected at each time point in the anticoagulant collection tube containing K2-EDTA. The centrifuged plasma was used for non-radioactive and radioactive pharmacokinetic and biotransformation (metabolite) analyses. In addition, about 2 mL of venous blood was collected within 0.5 h before administration and at 1, 4, 8, 12, 24, and 48 h after administration for whole blood radioactivity analysis. Additional 10 mL of venous blood for each time point was collected at 1, 4, 8, 12, 24, and 48 h after administration, and the plasma was obtained by centrifugation for biotransformation (metabolites) analysis. Urine and fecal samples were collected until 144 h (4 subjects) or 192 h (2 subjects) after administration.
Radioactivity was measured using an oxidative combustion apparatus and liquid scintillation counter (LSC). After the whole blood sample was vortexed thoroughly, two portions (about 0.5 g each) were weighed into the combustion boat, and after complete combustion by oxidative combustion apparatus, [^14C]carbon dioxide generated from the combustion of the samples was captured by scintillation solution and measured by liquid scintillation counter. After plasma samples were fully vortexed, one portion (approximately 0.5 g) was weighed into a scintillation vial, mixed well with the scintillation solution, and measured using a liquid scintillation counter. When the radioactivity of the plasma sample after administration is below the LLOQ, additional samples can be added, up to a maximum of 1 g. After mixing the urine well, weighed one portion (about 1 g) into a scintillation bottle, then added scintillation solution to mix well, and use a liquid scintillation counter to measure the radioactivity. The feces were transferred to labelled containers with known empty weights and soaked in an appropriate amount of 50% aqueous isopropanol solution for about 2–4 h or for a certain period of time (e.g., overnight) at 1°C–9°C. Before homogenization, the solution was made up to a suitable dilution by the addition of an appropriate amount of 50% aqueous isopropanol, the total weight was weighed and recorded, and the homogenization was carried out using a tissue homogenizer. Two equal portions of the homogenate (approximately 0.3 g) were weighed into a combustion boat and fully combusted by an oxidative combustion apparatus, and the [^14C]carbon dioxide generated from the combustion of the samples was captured with a scintillation solution and measured using a liquid scintillation counter.
The combustion efficiency of the oxidative combustor was verified by performing a combustion recovery test using a^14C-containing standard solution of known radioactivity concentration prior to combustion of the sample. […]

[2] = set-up: method as in Cao W. et al., 2023; details: 30 mg amdizalisib capsules, fed condition, Chinese healthy volunteers ref Cao W. et al., 2023; cited from earlier work
[3] = Safety and tolerability evaluation; details: for serious adverse events or deaths: 6 healthy Chinese males
Description: The safety of the subjects was assessed by adverse events, laboratory test results, vital signs, and 12-lead electrocardiogram (ECG). AEs were recorded from the time of administration and serious adverse events (SAE) were recorded from the time that subjects signed the informed consent. Subjects with elevated aspartate aminotransferase (AST) and/or alanine aminotransferase (ALT) levels (≥3 × ULN) combined with elevated serum total bilirubin (≥2 × ULN) or clinical jaundice in the same blood sample should be recorded as a specific adverse event.

[4] = Plasma pharmacokinetics of amdizalisib (LC-MS/MS) after a single oral dose of [14C]amdizalisib suspension; format: in vivo, human; details: for CL/F: amdizalisib in plasma, single oral 30 mg/100 µCi suspension, mean ± SD
Description: as §1, §2
Chromatographic separation was achieved on an XBridge C18 column, maintained at 40°C, with a mobile phase consisting of 2 mM ammonium formate in water (A) and methanol (B). A gradient elution was employed at a flow rate of 0.6 mL/min. The autosampler was set to 5°C, with an injection volume of 5 μL. […] Each analytical run included calibration standards and quality control samples to ensure method accuracy and precision. The corrected total concentration data of labelled (^14C) and unlabeled (^12C) analytes were given directly by Analyst data processing software. The standard curve consists of 0.500, 1.00, 2.00, 10.0, 50.0, 200, 450, 500 ng/mL. The quality control (QC) sample concentrations were 0.5 (lower limit of quantification QC), 1.50 (lower QC), 20.0 (low to medium QC), 250 (medium QC), 400 (high QC) ng/mL, respectively.
Pharmacokinetic analysis was performed using Phoenix WinNonlin® software version 8.3. […] Non-compartmental model was used to estimate the main PK parameters. Descriptive statistics applied to parameters including maximum plasma concentration after administration (Cmax), the time to reach maximum plasma concentration after administration (Tmax), elimination rate constant (λz), area under the plasma concentration-time curve from the time 0 to the time of last quantifiable concentration (AUC0-t, obtained by the linear trapezoidal method), area under the plasma concentration-time curve from time 0 extrapolated to infinity (AUC0-∞, AUC0-∞ = AUC0-t + Ct/λ z ), half-life (t1/2, t1/2 = ln ([…])/λz), mean residence time (MRT, MRT = AUMC/AUC), apparent clearance (CL/F, CL/F = Dose/AUC0-∞), apparent volume of distribution based on terminal phase (Vz/F, Vz/F = Dose/(λz×AUC0-∞)).

SMILES: C[C@H](Nc1ncnc(N)c1C#N)c1cc2ncc(Cl)n2nc1-c1ccccc1 [Amdizalisib]
- Aefeces, % of dose ([1]; Total (mean ± SD), 6 subjects, feces 0–144/192 h): 62.08 % of dose
- Aefeces, % of dose ([1]; Total (mean ± SD), 6 subjects, feces 0–144/192 h, listed as [^14C] Amdizalisib): 62.08 ± 3.00 % of dose
- Aeurine, % of dose ([1]; Total (mean ± SD), 6 subjects, urine 0–144/192 h): 37.15 % of dose
- Aeurine, % of dose ([1]; Total (mean ± SD), 6 subjects, urine 0–144/192 h, listed as [^14C] Amdizalisib): 37.15 ± 2.84 % of dose
- Aetotal, % of dose ([1]; Total (mean ± SD), 6 subjects, urine and feces 0–144/192 h, listed as [^14C] Amdizalisib): 99.23 ± 0.30 % of dose
- Aetotal, % of dose ([1]; Total (mean ± SD), 6 subjects, urine and feces 0–144/192 h, listed as [^14C]amdizalisib): 99.23 % of dose
- time within which completely excreted ([1]; single oral dose of [14C]amdizalisib suspension): ≤ 168 h
- Aefeces, % of dose ([1]; subject 1,001, feces 0–192 h): 58.49 % of dose
- Aeurine, % of dose ([1]; subject 1,001, urine 0–192 h): 40.40 % of dose
- Aetotal, % of dose ([1]; subject 1,001, urine and feces 0–192 h): 98.89 % of dose
- Aefeces, % of dose ([1]; subject 1,002, feces 0–192 h): 63.33 % of dose
- Aeurine, % of dose ([1]; subject 1,002, urine 0–192 h): 35.85 % of dose
- Aetotal, % of dose ([1]; subject 1,002, urine and feces 0–192 h): 99.18 % of dose
- Aefeces, % of dose ([1]; subject 1,003, feces 0–144 h): 64.48 % of dose
- Aeurine, % of dose ([1]; subject 1,003, urine 0–144 h): 35.12 % of dose
- Aetotal, % of dose ([1]; subject 1,003, urine and feces 0–144 h): 99.60 % of dose
- Aefeces, % of dose ([1]; subject 1,004, feces 0–144 h): 58.70 % of dose
- Aeurine, % of dose ([1]; subject 1,004, urine 0–144 h): 40.65 % of dose
- Aetotal, % of dose ([1]; subject 1,004, urine and feces 0–144 h): 99.35 % of dose
- Aefeces, % of dose ([1]; subject 1,005, feces 0–144 h): 61.77 % of dose
- Aeurine, % of dose ([1]; subject 1,005, urine 0–144 h): 37.11 % of dose
- Aetotal, % of dose ([1]; subject 1,005, urine and feces 0–144 h): 98.88 % of dose
- Aefeces, % of dose ([1]; subject 1,006, feces 0–144 h): 65.73 % of dose
- Aeurine, % of dose ([1]; subject 1,006, urine 0–144 h): 33.74 % of dose
- Aetotal, % of dose ([1]; subject 1,006, urine and feces 0–144 h): 99.47 % of dose
- average excretion of total radioactivity within 96 h after administration ([1]; urine plus feces): over 94 % of the administered dose
- excretion within 96 h as share of the total excretion from 0 h to 192 h ([1]; urine plus feces): 94.74%
- average excretion of total radioactivity within 96 h after administration ([1]; urine plus feces, listed as [^14C]amdizalisib): 94.01 % of the administered dose
- AUC0-∞ [2]: 1,574 h٠ng/mL
- Cmax [2]: 152 ng/mL
- subjects reporting TEAEs ([3]; 5 of 6 subjects, single oral 30 mg/100 µCi): 83.3%
- serious adverse events or deaths [3]: No serious adverse events or drug-related deaths occured
- serious adverse events or deaths ([3]; listed as amdizalisib): No subjects reported serious adverse events or adverse events leading to death
- severity of TEAEs ([3]; all TEAEs, considered study drug related): grade 1
- subjects reporting diarrhea as TEAE ([3]; four subjects): 66.7%
- number of TEAEs reported ([3]; throughout the study, 6 subjects): 11
- subjects reporting abnormal laboratory test results ([3]; two subjects, shortened ECG PR, elevated low-density lipoprotein, positive urine white blood cells): 33.3%
- CL/F [4]: 16.8 ± 4.44 L/h
- CL/F ([4]; listed as amdizalisib): 16.8 L/h
- concentration at 72 h ([4]; male, human, plasma, oral, 30 mg, below the lower quantifiable limit in 4 of 6 subjects, detectable in 2): < 0.5 ng/mL
- AUC(0-inf) ([4]; male, human, plasma, po, 30 mg): 1880 ± 478 ng·h/mL
- AUC(0-t) ([4]; male, human, plasma, po, 30 mg): 1870 ± 474 ng·h/mL
- Cmax ([4]; male, human, plasma, po, 30 mg): 244 ± 48.9 ng/mL
- half-life ([4]; male, human, plasma, po, 30 mg): 8.34 ± 2.43 h
- MRT last ([4]; male, human, plasma, po, 30 mg, read-out: MRT0-t): 9.65 ± 1.48 h
- Vd/F ([4]; male, human, plasma, po, 30 mg, read-out: Vz/F): 192 ± 28 L
